According to patent publication US20250282827A1, “LIPIDATED POLYMYXIN ANALOGUES” (priority 2021, published 2025):
≈ marks a conversion by molar mass, not a printed value. Where two headings read alike, the source gives them in different places. Positions of bridges follow the written chain, without caps; N, C: chain ends. Non-standard residues stand in square brackets, D forms with d. Residues, ends and D or L forms follow the SMILES beside them. *: point of attachment. CH2CH2OBz(4-tBu) = CC(C)(C)c1ccc(C(=O)OCC*)cc1; Ethyl(2-propionyloxy) = CCC(=O)OCC*; Ethyl(2-OPiv) = CC(C)(C)C(=O)OCC*; Ethyl(2-OBz) = O=C(OCC*)c1ccccc1; Dab = NCC[C@H](N)C(=O)O; X2 = O=C(OCC*)C1CCCCC1; X9 = CC(C)CC(=O)OCC*; Butyryl = CCCC(=O)*

Assays:
[1] = test system: E. coli ATCC 25922; format: cell-based, Escherichia coli
Excerpt: (§1) All 81 compounds prepared in Examples 2 and 3 underwent screening against a panel of Gram-negative bacterium to assess their ability to inhibit bacterial growth. […] The median value is presented.

[2] = test system: A. baumannii ATCC 19606; format: cell-based, Acinetobacter baumannii
Excerpt: as §1

[3] = test system: P. aeruginosa ATCC 27853; format: cell-based, Pseudomonas aeruginosa
Excerpt: as §1

[4] = test system: K. pneumoniae ATCC 33495; format: cell-based, Klebsiella pneumoniae
Excerpt: as §1

[5] = test system: K. pneumoniae ATCC MS6671; format: cell-based, Klebsiella pneumoniae
Excerpt: as §1

[6] = test system: K. pneumoniae ATCC 700603; format: cell-based, Klebsiella pneumoniae
Excerpt: as §1

[7] = test system: E. coli ATCC MS8345; format: cell-based, Escherichia coli
Excerpt: as §1
Expansion of the polymyxin macrocycle by substituting […]) offered little advantage in antimicrobial activity but was generally well tolerated although for A. baumanni and P. aeruginosa this was detrimental.

| Compound | MIC E. coli ATCC 25922 ([1]; ATCC 25922) | MIC A. baumannii ATCC 19606 ([2]; ATCC 19606) | MIC P. aeruginosa ATCC 27853 ([3]; ATCC 27853) | MIC K. pneumoniae ATCC 33495 ([4]; ATCC 33495) | MIC K. pneumoniae ATCC MS6671 ([5]; ATCC MS6671) | MIC K. pneumoniae ATCC 700603 ([6]; ATCC 700603) | MIC E. coli ATCC MS8345 ([7]; ATCC MS8345) | MIC E. coli ATCC 25922 ([1]; median of triplicate) | MIC A. baumannii ATCC 19606 ([2]; median of triplicate) | MIC P. aeruginosa ATCC 27853 ([3]; median of triplicate) | MIC K. pneumoniae ATCC 33495 ([4]; median of triplicate) | MIC K. pneumoniae ATCC MS6671 ([5]; median of triplicate) | MIC K. pneumoniae ATCC 700603 ([6]; median of triplicate) | MIC E. coli ATCC MS8345 ([7]; colistin-resistant strain, median of triplicate) |
| --- | --- | --- | --- | --- | --- | --- | --- | --- | --- | --- | --- | --- | --- | --- |
| CC(C)C[C@@H]1NC(=O)[C@@H](Cc2ccccc2)NC(=O)[C@H](CCN)NC(=O)[C@@H](NC(=O)[C@H](CCN)NC(=O)[C@@H](NC(=O)[C@H](CCN)NC(=O)[C@@H](N)CSCCOC(=O)c2ccc(C(C)(C)C)cc2)[C@@H](C)O)CCNC(=O)[C@H]([C@@H](C)O)NC(=O)[C@H](CCN)NC(=O)[C@H](CCN)NC1=O [Compound 34] (H-C(CH2CH2OBz(4-tBu))[Dab]T[Dab][Dab][Dab][dF]L[Dab][Dab]T; lactam 5-C) | 1 µg/mL (≈ 0.73 µM) | 1 µg/mL (≈ 0.73 µM) | 0.5 µg/mL (≈ 0.365 µM) | 0.25 µg/mL (≈ 0.182 µM) | >32 µg/mL | 1 µg/mL (≈ 0.73 µM) | 1 µg/mL (≈ 0.73 µM) |  |  |  |  |  |  |  |
| CCCC(=O)N[C@@H](CSCCOC(=O)c1ccccc1)C(=O)N[C@@H](CCN)C(=O)N[C@H](C(=O)N[C@@H](CCN)C(=O)N[C@H]1CCNC(=O)[C@H]([C@@H](C)O)NC(=O)[C@H](CCN)NC(=O)[C@H](CCN)NC(=O)[C@H](CSCCOC(=O)c2ccccc2)NC(=O)[C@@H](Cc2ccccc2)NC(=O)[C@H](CCN)NC1=O)[C@@H](C)O [Compound 50] (Butyryl-C(Ethyl(2-OBz))[Dab]T[Dab][Dab][Dab][dF]C(Ethyl(2-OBz))[Dab][Dab]T; lactam 5-C) |  |  |  |  |  |  |  | 0.5 µg/mL (≈ 0.328 µM) | 1 to 2 µg/mL | 1 µg/mL (≈ 0.657 µM) | 0.5 to 1 µg/mL | >32 µg/mL | 1 µg/mL (≈ 0.657 µM) | 16 µg/mL (≈ 10.5 µM) |
| CC(C)CC(=O)OCCSC[C@@H](N)C(=O)N[C@H](C(=O)N[C@@H](CCN)C(=O)N[C@H]1CCNC(=O)[C@H]([C@@H](C)O)NC(=O)[C@H](CCN)NC(=O)[C@H](CCN)NC(=O)[C@H](CC(C)C)NC(=O)[C@@H](Cc2ccccc2)NC(=O)[C@H](CCN)NC1=O)[C@@H](C)O [Compound 96] (H-[dC](X9)T[Dab][Dab][Dab][dF]L[Dab][Dab]T; lactam 4-C) | 0.25 µg/mL (≈ 0.209 µM) | 4 µg/mL (≈ 3.35 µM) | 1 µg/mL (≈ 0.837 µM) | 1 µg/mL (≈ 0.837 µM) | >32 µg/mL | 1 µg/mL (≈ 0.837 µM) | 16 µg/mL (≈ 13.4 µM) |  |  |  |  |  |  |  |
| CC(C)C[C@@H]1NC(=O)[C@@H](Cc2ccccc2)NC(=O)[C@H](CCN)NC(=O)[C@@H](NC(=O)[C@H](CCN)NC(=O)[C@@H](NC(=O)[C@H](N)CSCCOC(=O)C2CCCCC2)[C@@H](C)O)CCNC(=O)[C@H]([C@@H](C)O)NC(=O)[C@H](CCN)NC(=O)[C@H](CCN)NC1=O [Compound 103] (H-[dC](X2)T[Dab][Dab][Dab][dF]L[Dab][Dab]T; lactam 4-C) | 2 µg/mL (≈ 1.64 µM) | 4 µg/mL (≈ 3.28 µM) | 2 µg/mL (≈ 1.64 µM) | 2 µg/mL (≈ 1.64 µM) | >32 µg/mL | 2 µg/mL (≈ 1.64 µM) | 16 µg/mL (≈ 13.1 µM) |  |  |  |  |  |  |  |
| CCC(=O)OCCSC[C@@H]1NC(=O)[C@@H](Cc2ccccc2)NC(=O)[C@H](CCN)NC(=O)[C@@H](NC(=O)[C@H](CCN)NC(=O)[C@@H](NC(=O)[C@H](CCN)NC(=O)[C@@H](N)CSCCOC(=O)C(C)(C)C)[C@@H](C)O)CCNC(=O)[C@H]([C@@H](C)O)NC(=O)[C@H](CCN)NC(=O)[C@H](CCN)NC1=O [Compound 45] (H-C(Ethyl(2-OPiv))[Dab]T[Dab][Dab][Dab][dF]C(Ethyl(2-propionyloxy))[Dab][Dab]T; lactam 5-C) | 0.25 µg/mL (≈ 0.181 µM) | 2 to 4 µg/mL | 16 µg/mL (≈ 11.6 µM) | 0.25 to 0.5 µg/mL | >32 µg/mL | 0.25 to 0.5 µg/mL | 16 to 32 µg/mL |  |  |  |  |  |  |  |
